Results taken from article PMC9889419 (Pharmacological Reports, 2022).
Counter-ions that a name gives are not always drawn.

What was measured:
Test in all cases: Radioligand binding
[1] = molecular target: T1, EP2 (Homo sapiens, UniProt P43116); conditions: 100 μM
T1 construct: purchased Eurofins CEREP

[2] = tested on: TNF-α; conditions: 100 μM
[3] = molecular target: T2, 5-HT1B (Rattus norvegicus, UniProt P28564); conditions: 100 μM
T2 construct: purchased Eurofins CEREP

[4] = molecular target: T3, NOP (ORL1) (Homo sapiens, UniProt P41146); conditions: 100 μM
T3 construct: purchased Eurofins CEREP

[5] = molecular target: T4, CCK1 (CCKA) (Homo sapiens, UniProt P32238); conditions: 100 μM
T4 construct: purchased Eurofins CEREP

[6] = molecular target: T5, NK3 (Homo sapiens, UniProt P29371); conditions: 100 μM
T5 construct: purchased Eurofins CEREP

[7] = molecular target: T6, AT1 (Homo sapiens, UniProt P30556); conditions: 100 μM
T6 construct: purchased Eurofins CEREP

[8] = molecular target: T7, NK1 (Homo sapiens, UniProt P25103); conditions: 100 μM
T7 construct: purchased Eurofins CEREP

[9] = molecular target: T8, A1 (Homo sapiens, UniProt P30542); conditions: 100 μM
T8 construct: purchased Eurofins CEREP

[10] = molecular target: T9, M2 (Homo sapiens, UniProt P08172); conditions: 100 μM
T9 construct: purchased Eurofins CEREP

[11] = molecular target: T10, δ (DOP) (Homo sapiens, UniProt P41143); conditions: 100 μM
T10 construct: purchased Eurofins CEREP

[12] = molecular target: T11, V1a (Homo sapiens, UniProt P37288); conditions: 100 μM
T11 construct: purchased Eurofins CEREP

[13] = molecular target: T12, MT1 (ML1A) (Homo sapiens, UniProt P48039); conditions: 100 μM
T12 construct: purchased Eurofins CEREP

[14] = molecular target: T13, CCK2 (CCKB) (Homo sapiens, UniProt P32239); conditions: 100 μM
T13 construct: purchased Eurofins CEREP

[15] = molecular target: T14, Y1 (Homo sapiens, UniProt P25929); conditions: 100 μM
T14 construct: purchased Eurofins CEREP

[16] = molecular target: T15, ETB (Homo sapiens, UniProt P24530); conditions: 100 μM
T15 construct: purchased Eurofins CEREP

[17] = tested on: sst (non-selective); conditions: 100 μM
[18] = molecular target: T16, MC4 (Homo sapiens, UniProt P32245); conditions: 100 μM
T16 construct: purchased Eurofins CEREP

[19] = molecular target: T17, M3 (Homo sapiens, UniProt P20309); conditions: 100 μM
T17 construct: purchased Eurofins CEREP

[20] = molecular target: T18, CCR1 (Homo sapiens, UniProt P32246); conditions: 100 μM
T18 construct: purchased Eurofins CEREP

[21] = molecular target: T19, AT2 (Homo sapiens, UniProt P50052); conditions: 100 μM
T19 construct: purchased Eurofins CEREP

[22] = molecular target: T20, A2A (Homo sapiens, UniProt P29274); conditions: 100 μM
T20 construct: purchased Eurofins CEREP

[23] = molecular target: T21, 5-HT6 (Homo sapiens, UniProt P50406); conditions: 100 μM
T21 construct: purchased Eurofins CEREP

[24] = molecular target: T22, VPAC1 (VIP1) (Homo sapiens, UniProt P32241); conditions: 100 μM
T22 construct: purchased Eurofins CEREP

[25] = molecular target: T23, CB1 (Homo sapiens, UniProt P21554); conditions: 100 μM
T23 construct: purchased Eurofins CEREP

[26] = molecular target: T24, BZD (peripheral) (Rattus norvegicus, UniProt P16257); conditions: 100 μM
T24 construct: purchased Eurofins CEREP

[27] = molecular target: T25, NTS1 (NT1) (Homo sapiens, UniProt P30989); conditions: 100 μM
T25 construct: purchased Eurofins CEREP

[28] = molecular target: T26, PAC1 (PACAP) (Homo sapiens, UniProt P41586); conditions: 100 μM
T26 construct: purchased Eurofins CEREP

[29] = molecular target: T27, D1 (Homo sapiens, UniProt P21728); conditions: 100 μM
T27 construct: purchased Eurofins CEREP

[30] = molecular target: T28, Y2 (Homo sapiens, UniProt P49146); conditions: 100 μM
T28 construct: purchased Eurofins CEREP

[31] = molecular target: T29, D5 (Homo sapiens, UniProt P21918); conditions: 100 μM
T29 construct: purchased Eurofins CEREP

[32] = molecular target: T30, NK2 (Homo sapiens, UniProt P21452); conditions: 100 μM
T30 construct: purchased Eurofins CEREP

[33] = molecular target: T31, H2 (Homo sapiens, UniProt P25021); conditions: 100 μM
T31 construct: purchased Eurofins CEREP

[34] = molecular target: T32, IP (PGI2) (Homo sapiens, UniProt P43119); conditions: 100 μM
T32 construct: purchased Eurofins CEREP

[35] = molecular target: T33, CXCR2 (IL-8B) (Homo sapiens, UniProt P25025); conditions: 100 μM
T33 construct: purchased Eurofins CEREP

[36] = molecular target: T34, PPARγ (Homo sapiens, UniProt P37231); conditions: 100 μM
T34 construct: purchased Eurofins CEREP

[37] = molecular target: T35, A3 (Homo sapiens, UniProt P0DMS8); conditions: 100 μM
T35 construct: purchased Eurofins CEREP

[38] = molecular target: T36, GAL2 (Homo sapiens, UniProt O43603); conditions: 100 μM
T36 construct: purchased Eurofins CEREP

[39] = molecular target: T37, Sigma 2 (Homo sapiens, UniProt Q5BJF2)
T37 construct: purchased Eurofins CEREP
T37 sequence (Q5BJF2 whole entry): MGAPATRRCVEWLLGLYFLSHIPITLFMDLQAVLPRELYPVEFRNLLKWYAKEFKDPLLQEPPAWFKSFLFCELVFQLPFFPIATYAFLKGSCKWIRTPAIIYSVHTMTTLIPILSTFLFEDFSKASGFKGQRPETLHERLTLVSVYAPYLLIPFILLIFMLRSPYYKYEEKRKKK

T12 sequence (P48039 whole entry): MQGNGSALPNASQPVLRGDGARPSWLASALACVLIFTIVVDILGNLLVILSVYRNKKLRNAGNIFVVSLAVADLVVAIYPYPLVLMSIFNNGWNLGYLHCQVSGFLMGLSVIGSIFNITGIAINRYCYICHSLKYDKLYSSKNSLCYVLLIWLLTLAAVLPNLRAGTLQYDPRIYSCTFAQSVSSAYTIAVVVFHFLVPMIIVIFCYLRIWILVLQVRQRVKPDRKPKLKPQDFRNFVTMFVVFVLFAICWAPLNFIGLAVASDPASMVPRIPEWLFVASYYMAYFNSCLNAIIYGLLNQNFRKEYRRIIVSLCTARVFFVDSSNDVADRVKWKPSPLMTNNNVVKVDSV
T16 sequence (P32245 whole entry): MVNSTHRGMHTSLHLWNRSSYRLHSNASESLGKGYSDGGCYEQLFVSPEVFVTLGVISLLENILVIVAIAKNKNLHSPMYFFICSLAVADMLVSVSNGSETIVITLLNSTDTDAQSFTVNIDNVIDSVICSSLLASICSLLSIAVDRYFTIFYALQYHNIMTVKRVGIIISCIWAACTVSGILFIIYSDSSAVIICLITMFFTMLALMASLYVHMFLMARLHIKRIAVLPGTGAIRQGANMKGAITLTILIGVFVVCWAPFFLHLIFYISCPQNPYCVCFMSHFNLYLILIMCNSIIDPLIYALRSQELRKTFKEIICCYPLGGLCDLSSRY
T5 sequence (P29371 whole entry): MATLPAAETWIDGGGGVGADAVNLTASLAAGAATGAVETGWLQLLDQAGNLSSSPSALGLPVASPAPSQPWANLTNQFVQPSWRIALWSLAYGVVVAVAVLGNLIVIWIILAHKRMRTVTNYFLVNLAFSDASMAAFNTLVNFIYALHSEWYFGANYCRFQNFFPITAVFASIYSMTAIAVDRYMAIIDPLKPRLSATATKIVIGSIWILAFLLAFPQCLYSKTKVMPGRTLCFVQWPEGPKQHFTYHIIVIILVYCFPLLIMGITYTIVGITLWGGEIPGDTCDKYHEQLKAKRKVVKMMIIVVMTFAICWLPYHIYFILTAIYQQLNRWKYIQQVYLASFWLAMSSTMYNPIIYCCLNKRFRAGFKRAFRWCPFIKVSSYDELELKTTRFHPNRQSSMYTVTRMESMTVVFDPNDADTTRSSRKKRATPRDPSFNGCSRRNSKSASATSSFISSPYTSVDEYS
T25 sequence (P30989 whole entry): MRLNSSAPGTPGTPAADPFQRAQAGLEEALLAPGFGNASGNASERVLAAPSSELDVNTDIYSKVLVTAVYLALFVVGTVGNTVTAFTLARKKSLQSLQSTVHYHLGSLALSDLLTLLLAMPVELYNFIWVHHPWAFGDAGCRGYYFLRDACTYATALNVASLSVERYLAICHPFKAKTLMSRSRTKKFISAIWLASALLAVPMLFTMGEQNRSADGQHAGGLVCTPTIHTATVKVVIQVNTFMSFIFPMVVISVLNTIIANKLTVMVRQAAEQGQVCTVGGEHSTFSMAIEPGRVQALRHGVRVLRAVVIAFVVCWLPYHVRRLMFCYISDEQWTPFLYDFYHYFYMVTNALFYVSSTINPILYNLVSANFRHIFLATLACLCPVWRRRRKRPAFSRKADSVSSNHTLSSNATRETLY
T15 sequence (P24530 27-442): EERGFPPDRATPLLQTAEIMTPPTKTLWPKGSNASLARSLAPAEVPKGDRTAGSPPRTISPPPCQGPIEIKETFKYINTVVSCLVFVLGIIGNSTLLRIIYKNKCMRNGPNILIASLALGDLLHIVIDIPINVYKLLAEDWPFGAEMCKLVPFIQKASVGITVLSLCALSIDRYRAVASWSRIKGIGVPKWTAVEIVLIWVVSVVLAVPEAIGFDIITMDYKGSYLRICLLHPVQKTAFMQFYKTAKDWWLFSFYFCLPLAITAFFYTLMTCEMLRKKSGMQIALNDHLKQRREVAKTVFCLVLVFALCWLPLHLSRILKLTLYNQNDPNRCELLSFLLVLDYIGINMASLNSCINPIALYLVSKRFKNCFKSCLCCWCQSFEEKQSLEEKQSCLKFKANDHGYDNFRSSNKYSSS
T24 sequence (P16257 whole entry): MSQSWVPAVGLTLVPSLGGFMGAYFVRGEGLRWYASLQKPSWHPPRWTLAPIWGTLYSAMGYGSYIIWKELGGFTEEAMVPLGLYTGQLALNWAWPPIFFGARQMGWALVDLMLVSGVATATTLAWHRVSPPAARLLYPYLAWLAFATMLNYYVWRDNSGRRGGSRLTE
T28 sequence (P49146 whole entry): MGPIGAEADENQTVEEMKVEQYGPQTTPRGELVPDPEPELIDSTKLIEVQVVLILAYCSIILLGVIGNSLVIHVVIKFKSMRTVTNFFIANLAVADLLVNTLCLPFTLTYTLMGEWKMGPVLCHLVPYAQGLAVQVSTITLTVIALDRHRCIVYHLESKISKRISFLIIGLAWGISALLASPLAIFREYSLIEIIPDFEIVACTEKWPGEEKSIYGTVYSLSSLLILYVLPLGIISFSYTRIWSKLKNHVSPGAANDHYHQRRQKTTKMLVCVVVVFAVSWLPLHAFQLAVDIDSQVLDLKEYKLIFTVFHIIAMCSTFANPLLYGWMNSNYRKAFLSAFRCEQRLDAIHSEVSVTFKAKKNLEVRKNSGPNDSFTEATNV
T3 sequence (P41146 whole entry): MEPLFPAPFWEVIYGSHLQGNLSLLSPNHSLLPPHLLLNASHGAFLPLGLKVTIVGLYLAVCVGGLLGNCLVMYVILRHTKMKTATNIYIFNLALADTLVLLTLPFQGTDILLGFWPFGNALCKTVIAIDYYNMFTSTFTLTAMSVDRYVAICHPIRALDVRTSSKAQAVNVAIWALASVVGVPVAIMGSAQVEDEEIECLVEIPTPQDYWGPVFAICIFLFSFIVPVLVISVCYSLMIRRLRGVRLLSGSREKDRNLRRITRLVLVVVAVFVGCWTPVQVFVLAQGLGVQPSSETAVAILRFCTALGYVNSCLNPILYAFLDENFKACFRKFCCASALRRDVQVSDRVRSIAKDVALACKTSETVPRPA
T36 sequence (O43603 whole entry): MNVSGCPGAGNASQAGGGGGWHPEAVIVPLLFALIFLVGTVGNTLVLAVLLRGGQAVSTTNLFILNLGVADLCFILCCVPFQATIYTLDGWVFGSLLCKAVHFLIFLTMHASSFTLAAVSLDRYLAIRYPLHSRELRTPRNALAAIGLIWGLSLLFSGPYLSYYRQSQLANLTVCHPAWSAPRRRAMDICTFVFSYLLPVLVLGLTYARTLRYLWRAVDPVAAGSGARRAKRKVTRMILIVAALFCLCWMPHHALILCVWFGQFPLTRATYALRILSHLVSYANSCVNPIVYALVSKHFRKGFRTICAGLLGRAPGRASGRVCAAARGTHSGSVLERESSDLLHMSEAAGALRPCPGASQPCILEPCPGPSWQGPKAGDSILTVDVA
T14 sequence (P25929 whole entry): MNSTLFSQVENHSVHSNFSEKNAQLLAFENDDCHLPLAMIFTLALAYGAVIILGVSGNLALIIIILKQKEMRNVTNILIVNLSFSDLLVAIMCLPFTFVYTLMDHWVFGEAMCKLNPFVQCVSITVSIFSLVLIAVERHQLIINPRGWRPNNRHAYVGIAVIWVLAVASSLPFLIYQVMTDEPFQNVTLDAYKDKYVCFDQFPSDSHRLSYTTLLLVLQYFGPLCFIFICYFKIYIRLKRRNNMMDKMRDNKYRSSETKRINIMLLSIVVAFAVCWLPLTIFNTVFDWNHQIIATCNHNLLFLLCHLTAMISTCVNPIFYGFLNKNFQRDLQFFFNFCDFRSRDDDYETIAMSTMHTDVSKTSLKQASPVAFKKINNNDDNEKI
T26 sequence (P41586 21-468): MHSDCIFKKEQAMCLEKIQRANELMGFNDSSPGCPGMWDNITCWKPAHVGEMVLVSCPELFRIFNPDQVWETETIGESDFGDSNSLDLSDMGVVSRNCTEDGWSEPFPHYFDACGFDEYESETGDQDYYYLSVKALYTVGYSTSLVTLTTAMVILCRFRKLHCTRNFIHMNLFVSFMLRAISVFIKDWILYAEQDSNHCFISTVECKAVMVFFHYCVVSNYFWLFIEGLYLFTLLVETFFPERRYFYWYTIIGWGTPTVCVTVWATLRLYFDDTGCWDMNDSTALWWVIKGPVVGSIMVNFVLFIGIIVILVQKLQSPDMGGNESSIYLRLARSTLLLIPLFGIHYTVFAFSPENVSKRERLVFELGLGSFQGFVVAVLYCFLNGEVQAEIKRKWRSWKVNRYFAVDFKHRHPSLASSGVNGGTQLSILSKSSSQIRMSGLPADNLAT
T4 sequence (P32238 whole entry): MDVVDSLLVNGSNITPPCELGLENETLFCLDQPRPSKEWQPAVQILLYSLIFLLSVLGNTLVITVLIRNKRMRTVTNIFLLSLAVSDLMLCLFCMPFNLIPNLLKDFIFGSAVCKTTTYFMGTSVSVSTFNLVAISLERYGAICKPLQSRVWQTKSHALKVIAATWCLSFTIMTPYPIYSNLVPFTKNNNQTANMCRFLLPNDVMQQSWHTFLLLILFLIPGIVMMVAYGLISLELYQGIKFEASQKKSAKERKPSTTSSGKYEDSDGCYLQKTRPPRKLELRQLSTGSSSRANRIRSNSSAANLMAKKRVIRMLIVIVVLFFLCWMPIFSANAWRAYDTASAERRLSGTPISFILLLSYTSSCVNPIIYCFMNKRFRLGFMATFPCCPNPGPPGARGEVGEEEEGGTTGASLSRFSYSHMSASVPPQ

In the case of `CCC(CO)NCCOc1c(C)cccc1Cl` (stereo not shown) [Compound 4, R,S-2-((2-(2-chloro-6-methylphenoxy)ethyl)amino)butan-1-ol], the “% of control specific binding” value [1] is reported as 75.4%, the “% of control specific binding” value [2] is reported as 96.5% and the “% of control specific binding” value [3] is reported as 79.7%. For the same molecule, the “% of control specific binding” value [4] was 95.5%, the “% of control specific binding” value [5] was 99.8% and the “% of control specific binding” value [6] was 91.8%. The “% of control specific binding” value [7] was 131.2%, the “% of control specific binding” value [8] was 82.1% and the “% of control specific binding” value [9] was 124.5%. For the same molecule, the “% of control specific binding” value [10] was 58.4%, the “% of control specific binding” value [11] was 97.0% and the “% of control specific binding” value [12] was 99.8%. The “% of control specific binding” value [13] was 55.1%, the “% of control specific binding” value [14] was 107.4% and the “% of control specific binding” value [15] was 122.3%. The “% of control specific binding” value [16] was 134.4%, the “% of control specific binding” value [17] was 75.5% and the “% of control specific binding” value [18] was 92.0%. The “% of control specific binding” value [19] was 63.5%, the “% of control specific binding” value [20] was 100.7% and the “% of control specific binding” value [21] was 108.2%. For the same molecule, the “% of control specific binding” value [22] was 71.7%, the “% of control specific binding” value [23] was 101.6% and the “% of control specific binding” value [24] was 117.9%. The “% of control specific binding” value [25] was 126.0%, the “% of control specific binding” value [26] was 75.1% and the “% of control specific binding” value [27] was 128.1%. The “% of control specific binding” value [28] was 107.7%, the “% of control specific binding” value [29] was 58.6% and the “% of control specific binding” value [30] was 126.5%. For the same molecule, the “% of control specific binding” value [31] was 54.4%, the “% of control specific binding” value [32] was 88.7% and the “% of control specific binding” value [33] was 90.3%. For the same molecule, the “% of control specific binding” value [34] was 97.2%, the “% of control specific binding” value [35] was 112.2% and the “% of control specific binding” value [36] was 92.3%. The “% of control specific binding” value [37] was 115.1% and the “% of control specific binding” value [38] was 111.9%.

In the case of `CCC(CO)NCCOc1c(C)cccc1Cl` (stereo not shown) [KM-408, R,S-2-((2-(2-chloro-6-methylphenoxy)ethyl)amino)butan-1-ol hydrochloride], the inhibition at 10 µM ([39]; read-out: % inhibition of specific control binding) is reported as 94.8% and the remaining activity at 10 µM ([39]; read-out: % of control specific binding) is reported as 94.8%.
